# How the values were obtained:
# ROCK2 = ROCK2 (Homo sapiens (Human), UniProt O75116); assay: ROCK assay (LABCHIP peptide phosphorylation), ROCK2; format: biochemical; conditions: 5 μM ATP, 1.5 μM peptide substrate
# ROCK1 = ROCK1 (Homo sapiens (Human), UniProt Q13464); assay: ROCK assay (LABCHIP peptide phosphorylation), ROCK1; format: biochemical; conditions: 5 μM ATP, 1.5 μM peptide substrate; read-out: ROCK1 IC50
# Sequence of ROCK1 (Q13464 whole entry, species assumed): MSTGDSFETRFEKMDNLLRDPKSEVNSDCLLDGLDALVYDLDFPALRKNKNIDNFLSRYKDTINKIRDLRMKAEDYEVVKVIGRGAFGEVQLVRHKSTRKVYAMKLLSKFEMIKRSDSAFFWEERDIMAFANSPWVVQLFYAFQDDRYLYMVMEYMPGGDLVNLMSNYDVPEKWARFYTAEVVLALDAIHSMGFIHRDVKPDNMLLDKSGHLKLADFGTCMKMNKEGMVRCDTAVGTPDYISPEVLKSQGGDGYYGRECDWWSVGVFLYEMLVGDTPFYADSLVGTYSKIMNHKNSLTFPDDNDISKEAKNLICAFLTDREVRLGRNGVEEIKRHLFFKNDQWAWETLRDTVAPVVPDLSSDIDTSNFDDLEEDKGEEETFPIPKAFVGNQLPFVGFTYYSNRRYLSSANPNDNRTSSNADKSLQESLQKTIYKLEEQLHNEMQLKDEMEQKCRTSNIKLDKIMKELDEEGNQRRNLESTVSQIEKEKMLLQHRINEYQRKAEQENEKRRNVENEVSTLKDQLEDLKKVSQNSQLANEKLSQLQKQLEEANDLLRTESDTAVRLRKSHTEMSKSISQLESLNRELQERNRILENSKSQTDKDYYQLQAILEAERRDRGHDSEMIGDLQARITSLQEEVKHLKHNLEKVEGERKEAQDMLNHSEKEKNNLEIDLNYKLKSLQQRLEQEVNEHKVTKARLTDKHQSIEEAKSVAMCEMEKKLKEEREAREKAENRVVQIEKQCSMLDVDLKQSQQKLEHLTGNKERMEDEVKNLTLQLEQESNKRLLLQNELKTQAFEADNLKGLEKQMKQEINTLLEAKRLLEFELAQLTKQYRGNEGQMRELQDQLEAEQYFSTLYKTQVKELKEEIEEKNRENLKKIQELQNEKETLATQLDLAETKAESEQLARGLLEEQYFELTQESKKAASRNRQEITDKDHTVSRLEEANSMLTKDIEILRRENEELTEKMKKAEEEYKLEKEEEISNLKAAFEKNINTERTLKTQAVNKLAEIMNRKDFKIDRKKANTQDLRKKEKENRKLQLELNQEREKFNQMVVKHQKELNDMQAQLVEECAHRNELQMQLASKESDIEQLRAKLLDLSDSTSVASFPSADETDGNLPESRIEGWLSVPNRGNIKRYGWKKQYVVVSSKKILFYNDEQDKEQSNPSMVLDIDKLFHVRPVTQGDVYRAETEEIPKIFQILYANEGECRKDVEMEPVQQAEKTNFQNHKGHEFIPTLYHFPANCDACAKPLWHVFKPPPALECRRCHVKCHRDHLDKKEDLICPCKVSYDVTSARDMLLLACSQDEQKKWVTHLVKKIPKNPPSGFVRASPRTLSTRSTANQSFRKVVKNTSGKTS
# Sequence of ROCK2 (O75116 whole entry, species assumed): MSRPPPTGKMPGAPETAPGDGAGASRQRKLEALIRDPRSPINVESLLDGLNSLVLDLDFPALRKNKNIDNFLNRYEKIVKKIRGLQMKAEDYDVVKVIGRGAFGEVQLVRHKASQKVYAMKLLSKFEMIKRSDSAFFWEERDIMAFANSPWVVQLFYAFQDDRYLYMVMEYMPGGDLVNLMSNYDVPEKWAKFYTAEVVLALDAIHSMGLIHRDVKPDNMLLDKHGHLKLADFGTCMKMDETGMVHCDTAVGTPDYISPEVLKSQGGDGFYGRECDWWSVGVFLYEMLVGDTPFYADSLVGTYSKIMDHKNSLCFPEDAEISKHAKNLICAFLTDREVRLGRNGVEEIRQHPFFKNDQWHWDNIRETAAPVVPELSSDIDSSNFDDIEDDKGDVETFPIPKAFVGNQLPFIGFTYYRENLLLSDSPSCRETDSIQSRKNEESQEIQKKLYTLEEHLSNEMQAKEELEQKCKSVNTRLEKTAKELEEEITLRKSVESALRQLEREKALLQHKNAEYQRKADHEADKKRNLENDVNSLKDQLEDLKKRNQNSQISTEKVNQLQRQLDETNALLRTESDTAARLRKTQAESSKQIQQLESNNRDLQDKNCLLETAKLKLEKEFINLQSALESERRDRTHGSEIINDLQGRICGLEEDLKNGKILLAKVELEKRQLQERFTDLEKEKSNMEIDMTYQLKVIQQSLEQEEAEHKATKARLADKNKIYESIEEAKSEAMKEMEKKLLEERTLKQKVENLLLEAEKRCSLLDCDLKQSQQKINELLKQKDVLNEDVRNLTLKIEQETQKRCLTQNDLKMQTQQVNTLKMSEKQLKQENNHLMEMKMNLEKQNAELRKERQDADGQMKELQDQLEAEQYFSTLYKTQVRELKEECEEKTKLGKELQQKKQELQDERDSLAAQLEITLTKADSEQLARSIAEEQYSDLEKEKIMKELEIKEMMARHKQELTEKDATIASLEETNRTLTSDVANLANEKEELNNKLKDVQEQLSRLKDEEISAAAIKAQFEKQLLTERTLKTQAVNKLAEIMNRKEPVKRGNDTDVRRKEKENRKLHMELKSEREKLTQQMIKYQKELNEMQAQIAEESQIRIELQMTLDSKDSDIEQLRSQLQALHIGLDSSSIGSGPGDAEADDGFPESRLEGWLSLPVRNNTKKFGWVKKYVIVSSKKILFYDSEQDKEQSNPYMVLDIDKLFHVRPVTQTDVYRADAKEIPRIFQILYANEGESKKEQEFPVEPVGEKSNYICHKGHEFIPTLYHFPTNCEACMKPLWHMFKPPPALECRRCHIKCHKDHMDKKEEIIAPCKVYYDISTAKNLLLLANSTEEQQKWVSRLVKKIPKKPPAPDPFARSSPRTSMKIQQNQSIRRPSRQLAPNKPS
Compound,IC50 (ROCK2) [nM],IC50 (ROCK1) [nM]
"COc1cc(NC(=O)c2nn(CC3CCOC3)c3ccccc23)ccc1-c1n[nH]c(=O)c2ccccc12 (centres unmarked) [Example 348, N-(3-Methoxy-4-(4-oxo-3,4-dihydrophthalazin-1-yl)phenyl)-1-((tetrahydrofuran-3-yl)methyl)-1H-indazole-3-carboxamide]",0.1 to 100,101 to 1000
"O=C(Nc1ccc(-c2n[nH]c(=O)c3ccccc23)cc1)c1cnn(C2CCOC2)c1 (centres unmarked) [Example 390, N-(4-(4-Oxo-3,4-dihydrophthalazin-1-yl)phenyl)-1-(tetrahydrofuran-3-yl)-1H-pyrazole-4-carboxamide]",0.1 to 100,101 to 1000
"CCCc1c(C(=O)Nc2ccc(-c3n[nH]c(=O)c4ccccc34)cc2)nnn1-c1ccccc1 [Example 231, N-[4-(4-oxo-3,4-dihydrophthalazin-1-yl)phenyl]-1-phenyl-5-propyl-1H-1,2,3-triazole-4-carboxamide]",0.1 to 100,101 to 1000
"O=C(Nc1ccc(-c2n[nH]c(=O)c3ccccc23)cc1)c1ccc(-n2cncn2)cc1 [Example 92, N-[4-(4-oxo-3,4-dihydrophthalazin-1-yl)phenyl]-4-(1H-1,2,4-triazol-1-yl)benzamide]",0.1 to 100,101 to 1000
"CC(C)(O)Cn1nc(C(=O)Nc2ccc(-c3n[nH]c(=O)c4ccccc34)cc2)c2ccccc21 [Example 137, 1-(2-hydroxy-2-methylpropyl)-N-[4-(4-oxo-3,4-dihydrophthalazin-1-yl)phenyl]-1H-indazole-3-carboxamide]",0.1 to 100,0.1 to 100
"Cc1cc(NC(=O)c2cnc3ccccn23)ccc1-c1n[nH]c(=O)c2ccccc12 [Example 312, N-[3-methyl-4-(4-oxo-3,4-dihydrophthalazin-1-yl)phenyl]imidazo [1,2-a]pyridine-3-carboxamide]",0.1 to 100,101 to 1000
"O=C(Cc1ccc(-c2n[nH]c(=O)c3ccccc23)cc1)N1CCC(Cc2ccccc2)CC1 [Example 17, 4-{4-[2-(4-benzylpiperidin-1-yl)-2-oxoethyl]phenyl}-1,2-dihydrophthalazin-1-one]",0.1 to 100,1000 to 50000
"COc1ccc2c(c1)CN(C(=O)Cc1ccc(-c3n[nH]c(=O)c4ccccc34)cc1)C2 [Example 3, 4-(4-(2-(5-Methoxyisoindolin-2-yl)-2-oxoethyl)phenyl)phthalazin-1(2H)-one]",0.1 to 100,101 to 1000
"O=C(Nc1ccc(-c2n[nH]c(=O)c3ccccc23)cc1)c1nc2ncccn2n1 [Example 112, N-[4-(4-oxo-3,4-dihydrophthalazin-1-yl)phenyl]-[1,2,4]triazolo[1,5-a]pyrimidine-2-carboxamide]",101 to 1000,1000 to 50000
"O=C(Cc1ccc(-c2n[nH]c(=O)c3ccccc23)cc1)N[C@H]1CCc2ccccc21 [Example 82, (S)—N-(2,3-Dihydro-1H-inden-1-yl)-2-(4-(4-oxo-3,4-dihydrophthalazin-1-yl)phenyl)acetamide]",101 to 1000,1000 to 50000
"CCn1c(C(=O)Nc2ccc(-c3n[nH]c(=O)c4ccccc34)cc2)cc2ccccc21 [Example 107, 1-ethyl-N-[4-(4-oxo-3,4-dihydrophthalazin-1-yl)phenyl]-1H-indole-2-carboxamide]",0.1 to 100,0.1 to 100
"COc1ccccc1N1CCC(C(=O)Nc2ccc(-c3n[nH]c(=O)c4ccccc34)cc2)C1=O (centres unmarked) [Example 216, 1-(2-methoxyphenyl)-2-oxo-N-[4-(4-oxo-3,4-dihydrophthalazin-1-yl)phenyl]pyrrolidine-3-carboxamide]",101 to 1000,1000 to 50000
"COc1ccc2c(=O)[nH]cc(-c3ccc(CC(=O)N4CCc5ccc(OCC(C)(C)O)cc54)cc3)c2c1 [Example 289, 4-(4-(2-(6-(2-Hydroxy-2-methylpropoxy)indolin-1-yl)-2-oxoethyl)phenyl)-6-methoxyisoquinolin-1(2H)-one]",0.1 to 100,0.1 to 100
"O=C(Nc1ccc(-c2n[nH]c(=O)c3ccccc23)cc1)c1cnn2cccnc12 [Example 113, N-[4-(4-oxo-3,4-dihydrophthalazin-1-yl)phenyl]pyrazolo[1,5-a]pyrimidine-3-carboxamide]",101 to 1000,101 to 1000
"CN1CCN(C(=O)COc2ccc3c(c2)N(C(=O)Cc2ccc(-c4n[nH]c(=O)c5ccccc45)cc2)CC3)CC1 [Example 299, 4-(4-(2-(6-(2-(4-Methylpiperazin-1-yl)-2-oxoethoxy)indolin-1-yl)-2-oxoethyl)phenyl)phthalazin-1(2H)-one]",0.1 to 100,101 to 1000
"CC(C)(O)Cn1nc(C(=O)Nc2ccc(-c3n[nH]c(=O)c4ccccc34)cc2O)c2ccccc21 [Example 353, 1-(2-Hydroxy-2-methylpropyl)-N-(2-hydroxy-4-(4-oxo-3,4-dihydrophthalazin-1-yl)phenyl)-1H-indazole-3-carboxamide]",0.1 to 100,101 to 1000
"CC(C)(O)COc1ccn2ncc(C(=O)Nc3ccc(-c4n[nH]c(=O)c5ccccc45)cc3)c2c1 [Example 181, 5-(2-hydroxy-2-methylpropoxy)-N-[4-(4-oxo-3,4-dihydrophthalazin-1-yl)phenyl]pyrazolo[1,5-a]pyridine-3-carboxamide]",0.1 to 100,101 to 1000
"N-[4-(4-oxo-3,4- dihydrophthalazin-1- yl)phenyl]-1-[3- ylmethyl]-1H-indazole- 3-carboxamide [Example 170]",0.1 to 100,0.1 to 100
"O=C(Nc1ccc(-c2n[nH]c(=O)c3ccccc23)cc1)c1cnn(Cc2ccccc2)c1 [Example 200, 1-benzyl-N-[4-(4-oxo-3,4-dihydrophthalazin-1-yl)phenyl]-1H-pyrazole-4-carboxamide]",0.1 to 100,0.1 to 100
"O=C(Cc1ccc(-c2n[nH]c(=O)c3ccccc23)cc1)N1CCc2ccc(OCc3ccccn3)cc21 [Example 271, 4-(4-{2-oxo-2-[6-(pyridin-2-ylmethoxy)-2,3-dihydro-1H-indol-1-yl]ethyl}phenyl)-1,2-dihydrophthalazin-1-one]",0.1 to 100,0.1 to 100
"2-[4-(4-oxo-3,4- dihydrophthalazin-1- yl)phenyl]-N-[(1S,2R)- 2-phenylcyclopropyl] acetamide [Example 18]",1000 to 50000,1000 to 50000
"O=C(Nc1ccc(-c2n[nH]c(=O)c3ccccc23)cc1)c1cnc2ccccn12 [Example 104, N-[4-(4-oxo-3,4-dihydrophthalazin-1-yl)phenyl]imidazo[1,2-a]pyridine-3-carboxamide]",0.1 to 100,0.1 to 100
"O=C(Nc1ccc(-c2n[nH]c(=O)c3ccccc23)cc1)c1cnn(-c2ccccc2)c1C(F)(F)F [Example 190, N-[4-(4-oxo-3,4-dihydrophthalazin-1-yl)phenyl]-1-phenyl-5-(trifluoromethyl)-1H-pyrazole-4-carboxamide]",0.1 to 100,0.1 to 100
"Cc1cc(NC(=O)c2c(C)nc3ccccn23)ccc1-c1n[nH]c(=O)c2ccccc12 [Example 311, 2-methyl-N-[3-methyl-4-(4-oxo-3,4-dihydrophthalazin-1-yl)phenyl]imidazo[1,2-a] pyridine-3-carboxamide]",0.1 to 100,0.1 to 100
"Cn1nc2c(c1C(=O)Nc1ccc(-c3n[nH]c(=O)c4ccccc34)cc1)CCCC2 [Example 116, 2-methyl-N-[4-(4-oxo-3,4-dihydrophthalazin-1-yl)phenyl]-4,5,6,7-tetrahydro-2H-indazole-3-carboxamide]",0.1 to 100,0.1 to 100
